Source: ChEMBL document CHEMBL4145553, “Design, synthesis, and biological evaluation of novel amide and hydrazide based thioether analogs targeting Histone deacteylase (HDAC) enzymes” (Eur J Med Chem, 2018)
pIC50: −log10 of the molar value. Calls of active or inactive are those of the source. The calls are words filed in the database; no cut-off is given here.

Assays:
SK-MEL-28 [1] = experiment: Growth inhibition of human SK-MEL-28 cells assessed as cell growth at 10^-8 M incubated for 48 hrs by sulforhodamine B assay relative to control; format: functional; details: SK-MEL-28, 48 h, read-out: Activity
SK-MEL-5 [2] = experiment: Growth inhibition of human SK-MEL-5 cells assessed as cell growth at 10^-8 M incubated for 48 hrs by sulforhodamine B assay relative to control; format: functional; details: SK-MEL-5, 48 h, read-out: Activity
UACC-62 = experiment: Growth inhibition of human UACC62 cells assessed as cell growth at 10^-8 M incubated for 48 hrs by sulforhodamine B assay relative to control; format: functional; details: UACC-62, 48 h, read-out: Activity
NCI/ADR-RES = experiment: Growth inhibition of human NCI/ADR-RES cells assessed as cell growth at 10^-8 M incubated for 48 hrs by sulforhodamine B assay relative to control; format: functional; details: read-out: Activity
Hs-578T = experiment: Growth inhibition of human Hs 578T cells assessed as cell growth at 10^-8 M incubated for 48 hrs by sulforhodamine B assay relative to control; format: functional; details: read-out: Activity
ACHN = experiment: Growth inhibition of human ACHN cells assessed as cell growth at 10^-7 M incubated for 48 hrs by sulforhodamine B assay relative to control; format: functional; details: read-out: Activity
UO-31 = experiment: Growth inhibition of human UO31 cells assessed as cell growth at 10^-7 M incubated for 48 hrs by sulforhodamine B assay relative to control; format: functional; details: UO-31, 48 h, read-out: Activity
A549 = experiment: Growth inhibition of human A549/ATCC cells assessed as cell growth at 10^-6 M incubated for 48 hrs by sulforhodamine B assay relative to control; format: functional; details: A549, 48 h, read-out: Activity
HOP-62 [3] = experiment: Growth inhibition of human HOP62 cells assessed as cell growth at 10^-6 M incubated for 48 hrs by sulforhodamine B assay relative to control; format: functional; details: HOP-62, 48 h, read-out: Activity
COLO 205 [4] = experiment: Growth inhibition of human COLO205 cells assessed as cell growth at 10^-6 M incubated for 48 hrs by sulforhodamine B assay relative to control; format: functional; details: COLO 205, 48 h, read-out: Activity
SK-MEL-28 [5] = experiment: Growth inhibition of human SK-MEL-28 cells assessed as cell growth at 10^-6 M incubated for 48 hrs by sulforhodamine B assay relative to control; format: functional; details: SK-MEL-28, 48 h, read-out: Activity
OVCAR-8 = experiment: Growth inhibition of human OVCAR8 cells assessed as cell growth at 10^-6 M incubated for 48 hrs by sulforhodamine B assay relative to control; format: functional; details: OVCAR-8, 48 h, read-out: Activity
MOLT-4 = experiment: Growth inhibition of human MOLT4 cells assessed as cell growth at 10^-5 M incubated for 48 hrs by sulforhodamine B assay relative to control; format: functional; details: MOLT-4, 48 h, read-out: Activity
M14 = experiment: Growth inhibition of human M14 cells assessed as cell growth at 10^-5 M incubated for 48 hrs by sulforhodamine B assay relative to control; format: functional; details: M14, 48 h, read-out: Activity
OVCAR-4 [6] = experiment: Growth inhibition of human OVCAR4 cells assessed as cell growth at 10^-5 M incubated for 48 hrs by sulforhodamine B assay relative to control; format: functional; details: OVCAR-4, 48 h, read-out: Activity
SK-OV-3 [7] = experiment: Growth inhibition of human SKOV3 cells assessed as cell growth at 10^-5 M incubated for 48 hrs by sulforhodamine B assay relative to control; format: functional; details: SK-OV-3, 48 h, read-out: Activity
TK-10 = experiment: Growth inhibition of human TK10 cells assessed as cell growth at 10^-5 M incubated for 48 hrs by sulforhodamine B assay relative to control; format: functional; details: TK-10, 48 h, read-out: Activity
MCF7 = experiment: Growth inhibition of human MCF7 cells assessed as cell growth at 10^-5 M incubated for 48 hrs by sulforhodamine B assay relative to control; format: functional; details: MCF7, 48 h, read-out: Activity
EKVX = experiment: Growth inhibition of human EKVX cells assessed as cell growth at 10^-4 M incubated for 48 hrs by sulforhodamine B assay relative to control; format: functional; details: read-out: Activity
NCI-H226 = experiment: Growth inhibition of human NCI-H226 cells assessed as cell growth at 10^-4 M incubated for 48 hrs by sulforhodamine B assay relative to control; format: functional; details: NCI-H226, 48 h, read-out: Activity
COLO 205 [8] = experiment: Growth inhibition of human COLO205 cells assessed as cell growth at 10^-4 M incubated for 48 hrs by sulforhodamine B assay relative to control; format: functional; details: COLO 205, 48 h, read-out: Activity
SK-MEL-5 [9] = experiment: Growth inhibition of human SK-MEL-5 cells assessed as cell growth at 10^-4 M incubated for 48 hrs by sulforhodamine B assay relative to control; format: functional; details: SK-MEL-5, 48 h, read-out: Activity
OVCAR-4 [10] = experiment: Growth inhibition of human OVCAR4 cells assessed as cell growth at 10^-4 M incubated for 48 hrs by sulforhodamine B assay relative to control; format: functional; details: OVCAR-4, 48 h, read-out: Activity
HL-60(TB) = experiment: Growth inhibition of human HL-60(TB) cells incubated for 48 hrs by sulforhodamine B assay; format: functional; details: HL-60, 48 h
HOP-62 [11] = experiment: Growth inhibition of human HOP62 cells incubated for 48 hrs by sulforhodamine B assay; format: functional; details: HOP-62, 48 h
NCI-H522 = experiment: Growth inhibition of human NCI-H522 cells incubated for 48 hrs by sulforhodamine B assay; format: functional; details: NCI-H522, 48 h
SK-OV-3 [12] = experiment: Growth inhibition of human SKOV3 cells incubated for 48 hrs by sulforhodamine B assay; format: functional; details: SK-OV-3, 48 h
T47D = experiment: Growth inhibition of human T47D cells incubated for 48 hrs by sulforhodamine B assay; format: functional
HL-60 [13] = experiment: Antiproliferative activity against human HL60 cells after 24 hrs by MTT assay; format: functional; details: for GI50: Homo sapiens, HL-60, 24 h
HL-60 [14] = experiment: Induction of apoptosis in human HL60 cells assessed as increase in gammaH2ax expression by qRT-PCR method; format: functional, cell-based
Histone deacetylase 3 = Histone deacetylase 3 (Homo sapiens, UniProt O15379); experiment: Inhibition of HDAC3 (unknown origin) by ELISA
Sequence of Histone deacetylase 3 (O15379 whole entry): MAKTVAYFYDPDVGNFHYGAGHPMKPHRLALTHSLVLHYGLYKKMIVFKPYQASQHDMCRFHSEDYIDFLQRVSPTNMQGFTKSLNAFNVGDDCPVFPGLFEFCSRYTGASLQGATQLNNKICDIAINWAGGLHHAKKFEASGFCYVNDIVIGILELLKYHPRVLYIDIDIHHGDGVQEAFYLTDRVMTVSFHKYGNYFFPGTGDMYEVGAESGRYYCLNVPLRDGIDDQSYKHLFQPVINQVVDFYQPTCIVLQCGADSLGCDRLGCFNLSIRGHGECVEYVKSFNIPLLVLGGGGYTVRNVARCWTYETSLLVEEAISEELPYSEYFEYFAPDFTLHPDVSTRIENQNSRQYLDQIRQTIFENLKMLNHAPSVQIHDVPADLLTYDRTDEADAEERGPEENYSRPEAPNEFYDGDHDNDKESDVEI

[15] = read-out: LC50 (the source's name)
[16] = read-out: pLC50 (the source's name) (converted)

CCS/C(Nc1ccccc1)=C(\C#N)C(=O)Nc1ccc(OC)cc1
growth at 0.01 µM (SK-MEL-28 [1]): 101%
growth at 0.01 µM (SK-MEL-5 [2]): 98%
growth at 0.01 µM (UACC-62): 93%
growth at 0.01 µM (NCI/ADR-RES): 100%
growth at 0.01 µM (Hs-578T): 97%
growth at 0.1 µM (ACHN): 93%
growth at 0.1 µM (UO-31): 91%
growth at 1 µM (A549): 99%
growth at 1 µM (HOP-62 [3]): 78%
growth at 1 µM (COLO 205 [4]): 96%
growth at 1 µM (SK-MEL-28 [5]): 85%
growth at 1 µM (OVCAR-8): 98%
growth at 10 µM (MOLT-4): 21%
growth at 10 µM (M14): 10%
growth at 10 µM (OVCAR-4 [6]): 45%
growth at 10 µM (SK-OV-3 [7]): 10%
growth at 10 µM (TK-10): 66%
growth at 10 µM (MCF7): 15%
growth at 100 µM (EKVX): 16%
growth at 100 µM (NCI-H226): -15%
growth at 100 µM (COLO 205 [8]): -17%
growth at 100 µM (SK-MEL-5 [9]): -58%
growth at 100 µM (OVCAR-4 [10]): 29%
GI50 (HL-60(TB); read-out: GI50): 2.87 µM
CC50 (HL-60(TB); [15]): > 100 µM
TGI (HL-60(TB); read-out: TGI): > 100 µM
GI50 (HL-60(TB); read-out: pGI50 (converted)): 2.88 µM
CC50 (HL-60(TB); [16]): > 100 µM
TGI (HL-60(TB); read-out: pTGI): > 100 µM
GI50 (HOP-62 [11]; read-out: GI50): 5.62 µM
CC50 (HOP-62 [11]; [15]): > 100 µM
TGI (HOP-62 [11]; read-out: TGI): > 100 µM
GI50 (HOP-62 [11]; read-out: pGI50 (converted)): 5.62 µM
CC50 (HOP-62 [11]; [16]): > 100 µM
TGI (HOP-62 [11]; read-out: pTGI): > 100 µM
GI50 (NCI-H522; read-out: GI50): 2210 nM
CC50 (NCI-H522; [15]): > 100 µM
TGI (NCI-H522; read-out: TGI): 9.68 µM
GI50 (NCI-H522; read-out: pGI50 (converted)): 2190 nM
CC50 (NCI-H522; [16]): > 100 µM
TGI (NCI-H522; read-out: pTGI (converted)): 9.77 µM
GI50 (SK-OV-3 [12]; read-out: GI50): 3.28 µM
CC50 (SK-OV-3 [12]; [15]): > 100 µM
TGI (SK-OV-3 [12]; read-out: TGI): 50.2 µM
GI50 (SK-OV-3 [12]; read-out: pGI50 (converted)): 3.31 µM
CC50 (SK-OV-3 [12]; [16]): > 100 µM
TGI (SK-OV-3 [12]; read-out: pTGI (converted)): 50.1 µM
GI50 (T47D; read-out: GI50): 4.08 µM
CC50 (T47D; [15]): > 100 µM
TGI (T47D; read-out: TGI): > 100 µM
GI50 (T47D; read-out: pGI50 (converted)): 4.07 µM
CC50 (T47D; [16]): > 100 µM
TGI (T47D; read-out: pTGI): > 100 µM
Activity (HL-60 [13]): Dose-dependent effect
GI50 (HL-60 [13]): 2.87 µM
Activity (HL-60 [14]): Active
pIC50 (Histone deacetylase 3): 7.19

CCS/C(Nc1ccccc1)=C(\C#N)C(=O)N/N=C\c1ccc(Cl)cc1Cl
growth at 0.01 µM (SK-MEL-28 [1]): 104%
growth at 0.01 µM (SK-MEL-5 [2]): 101%
growth at 0.01 µM (UACC-62): 92%
growth at 0.01 µM (NCI/ADR-RES): 98%
growth at 0.01 µM (Hs-578T): 96%
growth at 0.1 µM (ACHN): 98%
growth at 0.1 µM (UO-31): 90%
growth at 1 µM (A549): 92%
growth at 1 µM (HOP-62 [3]): 76%
growth at 1 µM (COLO 205 [4]): 99%
growth at 1 µM (SK-MEL-28 [5]): 79%
growth at 1 µM (OVCAR-8): 99%
growth at 10 µM (MOLT-4): 22%
growth at 10 µM (M14): -1%
growth at 10 µM (OVCAR-4 [6]): 42%
growth at 10 µM (SK-OV-3 [7]): 19%
growth at 10 µM (TK-10): 50%
growth at 10 µM (MCF7): 14%
growth at 100 µM (EKVX): 29%
growth at 100 µM (NCI-H226): 11%
growth at 100 µM (COLO 205 [8]): 3%
growth at 100 µM (SK-MEL-5 [9]): -14%
growth at 100 µM (OVCAR-4 [10]): 9%
GI50 (HL-60(TB); read-out: GI50): 3.2 µM
CC50 (HL-60(TB); [15]): > 100 µM
TGI (HL-60(TB); read-out: TGI): > 100 µM
GI50 (HL-60(TB); read-out: pGI50 (converted)): 3.24 µM
CC50 (HL-60(TB); [16]): > 100 µM
TGI (HL-60(TB); read-out: pTGI): > 100 µM
GI50 (HOP-62 [11]; read-out: GI50): 3.66 µM
CC50 (HOP-62 [11]; [15]): > 100 µM
TGI (HOP-62 [11]; read-out: TGI): > 100 µM
GI50 (HOP-62 [11]; read-out: pGI50 (converted)): 3.63 µM
CC50 (HOP-62 [11]; [16]): > 100 µM
TGI (HOP-62 [11]; read-out: pTGI): > 100 µM
GI50 (NCI-H522; read-out: GI50): 1840 nM
CC50 (NCI-H522; [15]): > 100 µM
GI50 (NCI-H522; read-out: pGI50 (converted)): 1820 nM
CC50 (NCI-H522; [16]): > 100 µM
GI50 (SK-OV-3 [12]; read-out: GI50): 3.72 µM
CC50 (SK-OV-3 [12]; [15]): > 100 µM
TGI (SK-OV-3 [12]; read-out: TGI): > 100 µM
GI50 (SK-OV-3 [12]; read-out: pGI50 (converted)): 3.72 µM
CC50 (SK-OV-3 [12]; [16]): > 100 µM
TGI (SK-OV-3 [12]; read-out: pTGI (converted)): > 100 µM
GI50 (T47D; read-out: GI50): 4.03 µM
CC50 (T47D; [15]): > 100 µM
TGI (T47D; read-out: TGI): > 100 µM
GI50 (T47D; read-out: pGI50 (converted)): 4.07 µM
CC50 (T47D; [16]): > 100 µM
TGI (T47D; read-out: pTGI): > 100 µM
Activity (HL-60 [13]): Dose-dependent effect
GI50 (HL-60 [13]): 3.2 µM
Activity (HL-60 [14]): Active
pIC50 (Histone deacetylase 3): 7.49
